Experimental findings from ChEMBL document CHEMBL1201862, “PubChem BioAssay data set” (2004) are described below.

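Cultured in 96-well plates, cells were exposed to test compound for 48 hours across five concentrations. GI50 = concentration required for 50% inhibition of growth.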 Activity calls are given as the source filed them. Rule as the data show it: active = GI50 up to about 1.1 µM and inactive = higher.

Test systems include SF-539; HCC 2998; ACHN; LOX IMVI; CCRF-CEM; MOLT-4; HOP-92; SK-MEL-2; K562; PC-3; EKVX; HL-60; SN12C; HOP-62; CAKI-1; HCT-116; SW-620; SK-MEL-5; SK-OV-3; SR.
What all share (assay): inhibition of tumour cell growth, NCI panel, 48 h

Turning to `O=C1Oc2ccccc2C(=O)/C1=C1/C=C(c2ccccc2)SS1`, the GI50 in the experiment on SF-539 is > 100 µM (inactive); in the experiment on HCC 2998, 96.8 µM (inactive); with ACHN, > 100 µM (inactive); in the experiment on LOX IMVI, 64.7 µM (inactive); with CCRF-CEM it was 22.6 µM (inactive); with MOLT-4, 30.4 µM (inactive). Also, the GI50 was 15.6 µM (inactive) in the experiment on HOP-92; > 100 µM (inactive) in the experiment on SK-MEL-2; 42.5 µM (inactive) in the experiment on K562; > 100 µM (inactive) in the experiment with PC-3; > 100 µM (inactive) in the experiment on EKVX; 21.9 µM (inactive) in the experiment on HL-60. For the same compound, the GI50 is 69 µM (inactive) in the experiment on SN12C; > 100 µM (inactive) with HOP-62; 49.2 µM (inactive) in the experiment with CAKI-1; 56.6 µM (inactive) in the experiment on HCT-116; > 100 µM (inactive) in the experiment with SW-620; > 100 µM (inactive) with SK-MEL-5. The figures for the GI50 with SK-OV-3 and with SR were > 100 µM (inactive) and 28.3 µM (inactive), respectively.
With `COc1nn(Cc2ccccn2)c2ccc([N+](=O)[O-])cc12`, the GI50 with SF-539 was 27.4 µM (inactive); in the experiment on HCC 2998, 84.7 µM (inactive); with ACHN it was 48.6 µM (inactive); in the experiment with LOX IMVI it was 53.6 µM (inactive); with CCRF-CEM, 76.2 µM (inactive); in the experiment with MOLT-4, 53.1 µM (inactive). Further, the GI50 in the experiment with HOP-92 was 20.7 µM (inactive); in the experiment on SK-MEL-2, 51.1 µM (inactive); with K562, 31 µM (inactive); in the experiment with PC-3 it was > 100 µM (inactive); in the experiment with EKVX, 56.1 µM (inactive); in the experiment on HL-60, 20.2 µM (inactive). Further, the GI50 in the experiment with SN12C is > 100 µM (inactive); in the experiment on HOP-62, > 100 µM (inactive); in the experiment on CAKI-1 it was 51.2 µM (inactive); in the experiment with HCT-116 it was 62.4 µM (inactive); in the experiment with SW-620, 63 µM (inactive); with SK-MEL-5, 30.5 µM (inactive). For the same compound, the GI50 in the experiment on SK-OV-3 was > 100 µM (inactive); with SR, 28.4 µM (inactive).
Consider `O=C(O)c1cc2cc(OCc3ccccc3)ccc2[nH]1`, for which the GI50 in the experiment with SF-539, with HCC 2998, in the experiment on ACHN, in the experiment on LOX IMVI, in the experiment with CCRF-CEM and in the experiment with MOLT-4 was > 100 µM (inactive) each time. The GI50 in the experiment with HOP-92 is 23.6 µM (inactive); in the experiment with SK-MEL-2, 61.7 µM (inactive); in the experiment with K562, > 100 µM (inactive); in the experiment with PC-3, > 100 µM (inactive); in the experiment with EKVX, > 100 µM (inactive); with HL-60 it was > 100 µM (inactive). The GI50 in the experiment with SN12C, with HOP-62, in the experiment on CAKI-1, in the experiment on HCT-116, in the experiment with SW-620 and in the experiment with SK-MEL-5 was > 100 µM (inactive) in each case. Also, the GI50 in the experiment with SK-OV-3 and with SR was > 100 µM (inactive) throughout.
Consider `CC1=NC(C)(C)[N+]([O-])=C1`, for which the GI50 in the experiment with SF-539, in the experiment on HCC 2998, in the experiment with ACHN, with LOX IMVI, in the experiment with CCRF-CEM and with MOLT-4 was > 10 µM (inactive) each time. Also, the GI50 in the experiment with HOP-92, with SK-MEL-2, in the experiment with K562, in the experiment with PC-3, with EKVX and with HL-60 was > 10 µM (inactive) in each case. Further, the GI50 in the experiment on SN12C, in the experiment on HOP-62, with CAKI-1, in the experiment with HCT-116, in the experiment on SW-620 and with SK-MEL-5 was > 10 µM (inactive) in each case. The GI50 with SK-OV-3 was > 10 µM (inactive); with SR, 0.001 µM (active).
As for `S=C1N(c2ccc(Cl)cc2)C2=C(/N=N/c3ccccc3)C(=Nc3ccccc3S2)N1c1ccccn1`, the GI50 is 16.6 µM (inactive) with SF-539; 17.4 µM (inactive) in the experiment with HCC 2998; 14.5 µM (inactive) in the experiment on ACHN; 10.4 µM (inactive) in the experiment on LOX IMVI; 5.36 µM (inactive) with CCRF-CEM; 13.9 µM (inactive) in the experiment on MOLT-4. Moreover, the GI50 with HOP-92 was 12.6 µM (inactive); in the experiment with PC-3 it was 13.2 µM (inactive); in the experiment on EKVX it was 12.2 µM (inactive); with HL-60, 12 µM (inactive); in the experiment on SN12C, 12.5 µM (inactive); in the experiment with HOP-62, 19.4 µM (inactive). Moreover, the GI50 in the experiment with CAKI-1 was 13.8 µM (inactive); with HCT-116, 14.1 µM (inactive); in the experiment on SW-620 it was 16.4 µM (inactive); with SK-MEL-5, 11.4 µM (inactive); in the experiment with SK-OV-3 it was 17.8 µM (inactive); in the experiment on SR, 11.2 µM (inactive).
Turning to `O=C(Nc1ccc2c(c1)oc(=O)c1ccccc12)C(Cl)Cl`, the GI50 is 69.7 µM (inactive) with SF-539; 63.5 µM (inactive) with HCC 2998; > 100 µM (inactive) in the experiment on ACHN; > 100 µM (inactive) with LOX IMVI; > 100 µM (inactive) in the experiment on CCRF-CEM; 54.7 µM (inactive) in the experiment with MOLT-4. Further, the GI50 in the experiment with HOP-92 is > 100 µM (inactive); with SK-MEL-2, > 100 µM (inactive); in the experiment on K562, 51.2 µM (inactive); with PC-3 it was 76.4 µM (inactive); with EKVX it was 85.5 µM (inactive); in the experiment with HL-60 it was 12.2 µM (inactive). Also, the GI50 in the experiment on SN12C was > 100 µM (inactive); in the experiment on HOP-62 it was 62.1 µM (inactive); in the experiment with CAKI-1 it was > 100 µM (inactive); in the experiment on HCT-116, 69.3 µM (inactive); in the experiment with SW-620, > 100 µM (inactive); with SK-MEL-5 it was > 100 µM (inactive). Moreover, the GI50 in the experiment with SR is 45 µM (inactive).
Take `Nc1ncnc2c1ncn2C1OC(CO)CC1O` (stereo not drawn): the GI50 with SF-539 was 34.7 µM (inactive); in the experiment with HCC 2998, 19 µM (inactive); in the experiment with ACHN, > 100 µM (inactive); in the experiment with LOX IMVI it was 21.4 µM (inactive); with CCRF-CEM it was 34.3 µM (inactive); in the experiment on MOLT-4 it was > 100 µM (inactive). The GI50 in the experiment on HOP-92 is 40.4 µM (inactive); in the experiment on K562, 7.93 µM (inactive); in the experiment with PC-3, 9.27 µM (inactive); in the experiment with EKVX, 40.6 µM (inactive); in the experiment on HL-60 it was > 10 µM (inactive); in the experiment on SN12C, 25.6 µM (inactive). Also, the GI50 was 29.3 µM (inactive) with HOP-62; > 100 µM (inactive) in the experiment on CAKI-1; 20 µM (inactive) with HCT-116; 35.1 µM (inactive) in the experiment with SW-620; > 100 µM (inactive) with SK-MEL-5; 51.9 µM (inactive) with SK-OV-3. The GI50 in the experiment with SR was > 100 µM (inactive).
Regarding `Cc1sc2nc(-c3cccc([N+](=O)[O-])c3)c(/C=N/N=C(N)N)n2c1C`, the GI50 in the experiment on SF-539 was 1.95 µM (inactive); in the experiment with HCC 2998, 1.32 µM (inactive); with ACHN it was 1.71 µM (inactive); in the experiment with LOX IMVI it was 1.77 µM (inactive); in the experiment with CCRF-CEM it was 1.74 µM (inactive); in the experiment with MOLT-4 it was 1.9 µM (inactive). For the same compound, the GI50 with HOP-92 is 1.46 µM (inactive); in the experiment with SK-MEL-2, 1.71 µM (inactive); in the experiment with K562, 1.69 µM (inactive); in the experiment on PC-3, 1.63 µM (inactive); in the experiment with EKVX it was 1.67 µM (inactive); in the experiment with HL-60, 1.81 µM (inactive). Moreover, the GI50 in the experiment on SN12C was 1.92 µM (inactive); in the experiment on HOP-62, 1.72 µM (inactive); in the experiment with CAKI-1, 1.82 µM (inactive); with SW-620 it was 1.75 µM (inactive); with SK-MEL-5, 1.67 µM (inactive); with SK-OV-3, 1.8 µM (inactive). Further, the GI50 with SR is 1.75 µM (inactive).
As to `Cc1occc1/C(S)=N\c1ccc(Cl)c(COC(C)(C)C)c1`, the GI50 in the experiment with SF-539 was 16.8 µM (inactive); in the experiment with HCC 2998 it was 18.2 µM (inactive); in the experiment on ACHN, 17.3 µM (inactive); in the experiment with LOX IMVI it was 17.3 µM (inactive); in the experiment with CCRF-CEM it was 23.9 µM (inactive); with MOLT-4 it was 14.4 µM (inactive). Further, the GI50 in the experiment with HOP-92 is 15.7 µM (inactive); with SK-MEL-2, 15.8 µM (inactive); in the experiment with PC-3, 14.5 µM (inactive); with EKVX, 16.3 µM (inactive); in the experiment with HL-60, 19.4 µM (inactive); with SN12C it was 14.4 µM (inactive). The GI50 was 18.3 µM (inactive) in the experiment on HOP-62; 17.8 µM (inactive) in the experiment with CAKI-1; 17.9 µM (inactive) in the experiment on HCT-116; 17.5 µM (inactive) in the experiment with SW-620; 16.2 µM (inactive) in the experiment on SK-MEL-5; 17.1 µM (inactive) in the experiment with SK-OV-3. For the same compound, the GI50 in the experiment with SR is 17.6 µM (inactive).
As to `ClC1=C(Cc2ccccc2)Cc2ccc3c(c21)CCC3`, the GI50 with SF-539 is 74.3 µM (inactive); with HCC 2998 it was 20 µM (inactive); in the experiment on ACHN it was 29.9 µM (inactive); in the experiment with LOX IMVI it was 17.9 µM (inactive); in the experiment with CCRF-CEM, 27.9 µM (inactive); in the experiment with MOLT-4, 19.1 µM (inactive). Besides, the GI50 is 99.8 µM (inactive) in the experiment on HOP-92; 31.1 µM (inactive) in the experiment with K562; 32.3 µM (inactive) in the experiment with PC-3; 39.3 µM (inactive) in the experiment on EKVX; 19.7 µM (inactive) with HL-60; 34.4 µM (inactive) with SN12C. Further, the GI50 in the experiment on HOP-62 is 34.1 µM (inactive); in the experiment with CAKI-1, 41.4 µM (inactive); in the experiment with HCT-116, 28.3 µM (inactive); in the experiment with SW-620, 25.7 µM (inactive); with SK-MEL-5, 20.8 µM (inactive); in the experiment with SK-OV-3 it was 83.6 µM (inactive). Besides, the GI50 in the experiment with SR is 18.3 µM (inactive).
